In US20250154138A1, “Small Molecule IL-17A Modulators” (BeiGene, Ltd., priority 2022, published 2025):

Columns and labels:
[1] = system: IL-17-induced GROα secretion from HT-29 cells; experiment: GROα release assay in human colorectal adenocarcinoma epithelial cell (HT-29, ELISA); assay type: cell-based; details: Homo sapiens, HT-29, 48 h, 10 ng/mL IL-17A, highest concentration 10 μM, read-out: Cellular assay HT29 cell/CXCL1 IC50
Method in brief: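 IC50 values come from four-parameter fits of GROα levels, quantified by ELISA (450 nm, standard curve) in supernatants. Compounds, 4-fold serially diluted from 10 μM, were mixed 15 min with IL-17A (10 ng/mL final) before 48 h incubation with HT-29 cells at 37°C.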

[2] = molecular target: human IL-17A / human IL-17RA (Homo sapiens (Human), UniProt Q16552); experiment: Human IL-17A biochemical assay (HTRF, blocking of IL-17A binding to IL-17RA); details: 0.4 nM IL-17A, 0.3 nM IL-17RA, max compound concentration 10 uM
Method in brief: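 HTRF readout (ex337, em620/665 nm ratio) after anti-6His Tb cryptate and anti-human IgG-XL665 detection, 1 h RT. Beforehand, 0.4 nM IL-17A sat with compound 3 h RT, then 0.3 nM IL-17RA 1 h. IC50 by four-parameter logistic fit.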

Sequence of human IL-17A / human IL-17RA (Q16552 24-155): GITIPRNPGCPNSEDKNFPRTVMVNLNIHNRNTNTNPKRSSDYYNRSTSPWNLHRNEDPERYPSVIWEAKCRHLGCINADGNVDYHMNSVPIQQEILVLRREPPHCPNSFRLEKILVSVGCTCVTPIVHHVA

SMILES	IC50 [1]	IC50 [2]
COCC1(N2C[C@@H](C(C)C)NC2=O)Cc2ccc(NC(=O)[C@@H](NC(=O)c3nonc3C)C(C3CC3)C3CC3)cc2C1 (stereo partly drawn) [Example 244, N-((2S)-1,1-dicyclopropyl-3-((2-((R)-4-isopropyl-2-oxoimidazolidin-1-yl)-2-(methoxymethyl)-2,3-dihydro-1H-inden-5-yl)amino)-3-oxopropan-2-yl)-4-methyl-1,2,5-oxadiazole-3-carboxamide]	1570 nM	2130 nM
CC1CN(Cc2cc3cc(NC(=O)[C@@H](NC(=O)c4ccnn4C)C4CCCCC4)ccc3[nH]2)C(=O)N1 (stereo partly drawn) [Example 12, N-((1S)-1-cyclohexyl-2-((2-((4-methyl-2-oxoimidazolidin-1-yl)methyl)-1H-indol-5-yl)amino)-2-oxoethyl)-1-methyl-1H-pyrazole-5-carboxamide]	> 10000 nM	13000 nM
CC(C)[C@@H]1CN(C2(C(=O)NC(CO)C3CCCC3)Cc3ccc(NC(=O)[C@@H](NC(=O)c4ccnn4C)C4CCCCC4)cc3C2)C(=O)N1 (stereo partly drawn) [Example 107, N-((1S)-1-cyclohexyl-2-((2-((1-cyclopentyl-2-hydroxyethyl)carbamoyl)-2-((R)-4-isopropyl-2-oxoimidazolidin-1-yl)-2,3-dihydro-1H-inden-5-yl)amino)-2-oxoethyl)-1-methyl-1H-pyrazole-5-carboxamide]	34.5 nM	25 nM
CNC(=O)C1(N2CC(Cc3ccc(Cl)cc3)NC2=O)Cc2ccc(NC(=O)[C@@H](NC(=O)c3ccnn3C)C3CCCCC3)cc2C1 (stereo partly drawn) [Example 74, N-((1S)-2-((2-(4-(4-chlorobenzyl)-2-oxoimidazolidin-1-yl)-2-(methylcarbamoyl)-2,3-dihydro-1H-inden-5-yl)amino)-1-cyclohexyl-2-oxoethyl)-1-methyl-1H-pyrazole-5-carboxamide]	342 nM	32 nM
CCC1CCC(C(NC(=O)c2ccnn2C)C(=O)Nc2ccc3c(c2)CC(C(=O)NC)(N2C[C@@H](C(C)C)NC2=O)C3)CC1 (stereo partly drawn) [Example 101, N-(1-(4-ethylcyclohexyl)-2-((2-((R)-4-isopropyl-2-oxoimidazolidin-1-yl)-2-(methylcarbamoyl)-2,3-dihydro-1H-inden-5-yl)amino)-2-oxoethyl)-1-methyl-1H-pyrazole-5-carboxamide]	45.2 nM	7.5 nM
Cc1nocc1C(=O)N[C@H](C(=O)Nc1ccc2c(c1)CC(N1C[C@@H](C(F)(F)F)NC1=O)C2)C(C1CC1)C1CC1 (stereo partly drawn) [Example 218, N-((2S)-1,1-dicyclopropyl-3-oxo-3-((2-((S)-2-oxo-4-(trifluoromethyl)imidazolidin-1-yl)-2,3-dihydro-1H-inden-5-yl)amino)propan-2-yl)-3-methylisoxazole-4-carboxamide]	385 nM	141 nM
CNC(=O)C1(N2CC(C)(C)CNC2=O)Cc2ccc(NC(=O)[C@@H](NC(=O)c3ccnn3C)C3CCCCC3)cc2C1 (stereo partly drawn) [Example 70, N-((1S)-1-cyclohexyl-2-((2-(5,5-dimethyl-2-oxotetrahydropyrimidin-1(2H)-yl)-2-(methylcarbamoyl)-2,3-dihydro-1H-inden-5-yl)amino)-2-oxoethyl)-1-methyl-1H-pyrazole-5-carboxamide]	70.6 nM	26 nM
CNC(=O)C1(N2C[C@@H](C(C)C)NC2=O)Cc2ccc(NC(=O)[C@@H](NC(=O)c3ccnn3C)C3CCCCC3)cc2C1 (stereo partly drawn) [Example 39, N-((1S)-1-cyclohexyl-2-((2-((R)-4-isopropyl-2-oxoimidazolidin-1-yl)-2-(methylcarbamoyl)-2,3-dihydro-1H-inden-5-yl)amino)-2-oxoethyl)-1-methyl-1H-pyrazole-5-carboxamide]	56.4 nM	22.6 nM
Cc1nonc1C(=O)N[C@H](C(=O)Nc1ccc2c(c1)CC(C(=O)NCC(C)C1CCCCC1)(N1CC3(CC3)CNC1=O)C2)C1CCC(F)(F)CC1 (stereo partly drawn) [Example 185, N-((1S)-2-((2-((2-cyclohexylpropyl)carbamoyl)-2-(6-oxo-5,7-diazaspiro[2.5]octan-5-yl)-2,3-dihydro-1H-inden-5-yl)amino)-1-(4,4-difluorocyclohexyl)-2-oxoethyl)-4-methyl-1,2,5-oxadiazole-3-carboxamide]	275 nM	119 nM
COc1ccccc1NC(=O)C1(N2C[C@@H](C(C)C)NC2=O)Cc2ccc(NC(=O)[C@@H](NC(=O)c3nonc3C)C(C3CC3)C3CC3)cc2C1 (stereo partly drawn) [Example 254, N-((2S)-1,1-dicyclopropyl-3-((2-((R)-4-isopropyl-2-oxoimidazolidin-1-yl)-2-((2-methoxyphenyl)carbamoyl)-2,3-dihydro-1H-inden-5-yl)amino)-3-oxopropan-2-yl)-4-methyl-1,2,5-oxadiazole-3-carboxamide]	318 nM	178 nM
Cn1nccc1C(=O)N[C@H](C(=O)Nc1ccc2c(c1)CC(CNc1ccccc1F)(N1CC3(CC3)CNC1=O)C2)C1CCCCC1 (stereo partly drawn) [Example 172, N-((1S)-1-cyclohexyl-2-((2-(((2-fluorophenyl)amino)methyl)-2-(6-oxo-5,7-diazaspiro[2.5]octan-5-yl)-2,3-dihydro-1H-inden-5-yl)amino)-2-oxoethyl)-1-methyl-1H-pyrazole-5-carboxamide]	377 nM	400 nM
CCC1CCC(C(NC(=O)c2ccnn2C)C(=O)Nc2ccc3c(c2)CC(C(=O)NC)(N2CC4(CCC4)CNC2=O)C3)CC1 (stereo not shown) [Example 125, N-(1-(4-ethylcyclohexyl)-2-((2-(methylcarbamoyl)-2-(7-oxo-6,8-diazaspiro[3.5]nonan-6-yl)-2,3-dihydro-1H-inden-5-yl)amino)-2-oxoethyl)-1-methyl-1H-pyrazole-5-carboxamide]	25.8 nM	5.6 nM
Cn1nccc1C(=O)N[C@H](C(=O)Nc1ccc2c(c1)CC(N1C[C@@H](C(F)(F)F)NC1=O)C2)C(C1CC1)C1CC1 (stereo partly drawn) [Example 197, N-((2S)-1,1-dicyclopropyl-3-oxo-3-((2-((S)-2-oxo-4-(trifluoromethyl)imidazolidin-1-yl)-2,3-dihydro-1H-inden-5-yl)amino)propan-2-yl)-1-methyl-1H-pyrazole-5-carboxamide]	397 nM	80.6 nM
Cn1nccc1C(=O)N[C@H](C(=O)Nc1ccc2c(c1)CC(C(=O)NCc1ccccc1F)(N1CC3(CC3)CNC1=O)C2)C1CCCCC1 (stereo partly drawn) [Example 175, N-((1S)-1-cyclohexyl-2-((2-((2-fluorobenzyl)carbamoyl)-2-(6-oxo-5,7-diazaspiro[2.5]octan-5-yl)-2,3-dihydro-1H-inden-5-yl)amino)-2-oxoethyl)-1-methyl-1H-pyrazole-5-carboxamide]	10.1 nM	22.4 nM
CC[C@H]1CC[C@H]([C@H](NC(=O)c2ccnn2C)C(=O)Nc2ccc3c(c2)CC(C(=O)NC)(N2CC4(CC4)CNC2=O)C3)CC1 (stereo partly drawn) [Example 171, N-((1S)-1-((1r,4S)-4-ethylcyclohexyl)-2-((2-(methylcarbamoyl)-2-(6-oxo-5,7-diazaspiro[2.5]octan-5-yl)-2,3-dihydro-1H-inden-5-yl)amino)-2-oxoethyl)-1-methyl-1H-pyrazole-5-carboxamide]	9.7 nM	7 nM
CNC(=O)C1(N2C[C@@H](C(C)C)NC2=O)Cc2ccc(NC(=O)C(NC(=O)c3ccnn3C)C3CCC(C)CC3)cc2C1 (stereo partly drawn) [Example 89, N-(2-((2-((R)-4-isopropyl-2-oxoimidazolidin-1-yl)-2-(methylcarbamoyl)-2,3-dihydro-1H-inden-5-yl)amino)-1-(4-methylcyclohexyl)-2-oxoethyl)-1-methyl-1H-pyrazole-5-carboxamide]	29.7 nM	18 nM
CC(C)[C@@H]1CN(C2(C(=O)Nc3ccccc3)Cc3ccc(NC(=O)[C@@H](NC(=O)c4ccnn4C)C4CCCCC4)cc3C2)C(=O)N1 (stereo partly drawn) [Example 151, N-((1S)-1-cyclohexyl-2-((2-((R)-4-isopropyl-2-oxoimidazolidin-1-yl)-2-(phenylcarbamoyl)-2,3-dihydro-1H-inden-5-yl)amino)-2-oxoethyl)-1-methyl-1H-pyrazole-5-carboxamide]	99.6 nM	31 nM
Cc1nonc1C(=O)N[C@H](C(=O)Nc1ccc2c(c1)CC(N1C[C@@H](C(F)(F)F)NC1=O)C2)C1CCCCC1 (stereo partly drawn) [Example 213, N-((1S)-1-cyclohexyl-2-oxo-2-((2-((S)-2-oxo-4-(trifluoromethyl)imidazolidin-1-yl)-2,3-dihydro-1H-inden-5-yl)amino)ethyl)-4-methyl-1,2,5-oxadiazole-3-carboxamide]	4520 nM	1760 nM
Cc1cccc(NC(=O)C2(N3CC4(CC4)CNC3=O)Cc3ccc(NC(=O)[C@@H](NC(=O)c4nonc4C)C4CCC(F)(F)CC4)cc3C2)c1 (stereo partly drawn) [Example 229, N-((1S)-1-(4,4-difluorocyclohexyl)-2-oxo-2-((2-(6-oxo-5,7-diazaspiro[2.5]octan-5-yl)-2-(m-tolylcarbamoyl)-2,3-dihydro-1H-inden-5-yl)amino)ethyl)-4-methyl-1,2,5-oxadiazole-3-carboxamide]	85.1 nM	28.6 nM
Cc1nonc1C(=O)N[C@H](C(=O)Nc1ccc2c(c1)CC(c1cn3ccccc3n1)(N1CC3(CC3)CNC1=O)C2)C1CCC(F)(F)CC1 (stereo partly drawn) [Example 223, N-((1S)-1-(4,4-difluorocyclohexyl)-2-((2-(imidazo[1,2-a]pyridin-2-yl)-2-(6-oxo-5,7-diazaspiro[2.5]octan-5-yl)-2,3-dihydro-1H-inden-5-yl)amino)-2-oxoethyl)-4-methyl-1,2,5-oxadiazole-3-carboxamide]	606 nM	118 nM
